“Also recorded” adds a separate entry of the source. Non-standard residues stand in square brackets, D forms with d. Residues, ends and D or L forms follow the SMILES beside them. *: point of attachment. Sta = CC(C)C[C@H](N)[C@@H](O)CC(=O)O; Isovaleryl = CC(C)CC(=O)*

The values that follow come from patent publication EP1066315B1 (University of Dundee, priority 1998, dated 2008).

Data set [1] deals with T1, disrupted lysosomes isolated from the human B cell line EDR (TTCF processing activity) (Homo sapiens, UniProt Q99538).
T1 construct: disrupted lysosomes isolated from the human B cell line EDR; endogenous in cells; host or cells: human B cell line EDR, Percoll-gradient lysosomal fraction, disrupted
T1 sequence (Q99538 26-323 limits assumed): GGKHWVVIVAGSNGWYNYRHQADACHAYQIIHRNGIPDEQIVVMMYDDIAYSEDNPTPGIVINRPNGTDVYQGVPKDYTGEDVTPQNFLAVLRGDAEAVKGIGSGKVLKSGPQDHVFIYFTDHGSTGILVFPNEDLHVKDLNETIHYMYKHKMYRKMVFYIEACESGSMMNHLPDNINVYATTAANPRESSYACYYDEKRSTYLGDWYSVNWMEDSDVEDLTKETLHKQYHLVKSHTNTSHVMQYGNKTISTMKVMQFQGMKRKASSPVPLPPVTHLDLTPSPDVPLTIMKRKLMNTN
The data set is described as follows: Digestion of TTCF by disrupted B cell lysosomes, SDS-PAGE readout. As to conditions: 4 hours at 37°C, Fig 1a; for inhibition of lysosomal digestion of TTCF: inhibitor at 0.1 mg/ml, pH 4.5. In kind it is biochemical. The method, then: The invention will now be described by reference to the following Examples and Figures wherein • Figure 1: Processing of TTCF by a leupeptin-insensitive cysteine endopeptidase activity. (a) TTCF was digested in vitro in the presence of disrupted lysosomes (1-2 µg) in the presence or absence of iodoacetamide (1 mM), leupeptin, E64 or pepstatin (each at 0.1 mg/ml). Digestions were in 0.1 M NH4 acetate at pH 4.5 or Na2HPO4, pH 6.0 or 7.0. After 4 hours at 37°C, the reactions were separated by Tris-tricine SDS-PAGE and stained with Coomassie Blue. (b) Cleavage sites: TTCF digestion products were separated by SDS PAGE and electrophoretically transferred to nitrocellulose membrane. Individual fragments numbered 1-6 were subjected to 5 cycles of Edman degradation. N-terminal sequence obtained is shown in bold following upstream residues from TTCF (tetanus toxin numbering). The N-terminal sequence of His-tagged TTCF was obtained for fragments 1 and 3. (c) Residues Asn 1184 and Glu 1184 in TTCF were mutated to alanine (see Methods) and digestions performed as before. The mutation abolishes cleavage at the mutated site but not at the first site (doublet at 47 kD). In this experiment cleavage of the third site was minimal. • Figure 2: TTCF is processed by an asparaginyl endopeptidase. (a) Chromatography of the TTCF processing activity on Mono-S resin. Fractions eluted by NaCl gradient were incubated with the substrates Z-Ala-Ala-Asn-NHMec or Z-Phe-Arg-NHMec in the presence or absence of E64 (trans-epoxysuccinyl-L-leucylamido-(4-guanidino)butane). […] (b) Fractions as above were incubated with 10 µg TTCF in the presence or absence of E64 for 4 hours at 37°C prior to SDS-PAGE analysis. (c) Each fraction was analysed by SDS-PAGE and Western blotting. Electrophoretically transferred material was probed with an affinity purified antiserum raised against the peptide KGIGSGKVLKSGPQC from human legumain^1. • Figure 3: Peptide inhibitors of AEP block asparaginyl endopeptidase activity and TTCF processing in vitro and in vivo. (a) TTCF was digested with purified AEP (legumain from pig kidney) in the presence or absence of 0.2 mg/ml of the peptides indicated. […] (b) Purified AEP or a crude lysosomal protease mixture were incubated with Z-Ala-Ala-Asn-NHMec, Z-Phe-Arg-NHMec (cathepsins L&B) or Z-Val-Val-Ala NHMec (cathepsin S) in the presence of increasing concentrations of AENK or AEQK. Release of 7-amino-4-methyl coumarin was measured after 10, 20 or 30 minutes. […] At different times the cells were washed, fixed in 0.05 % glutaraldehyde and co-cultured with autologous TTCF specific T cell clones. […] Proteins obtained from commercial sources, as described in the literature or custom peptides were digested with purified pig kidney legumain at pH 5.5 in the presence of 1 mM DTT. […] When present peptide was maintained during antigen pulsing at 1 mg/ml (a) or 2 mg/ml (b). At different times the cells were washed, fixed in 0.05 % glutaraldehyde and antigen presentation measured using proliferation of different autologous TTCF-specific T cell clones. c, AEP pre-processing of TTCF speeds antigen presentation. […] Presentation was measured after 60 minutes of antigen pulsing using EBV B cells.
[…]. […] Nor could we reproduce the lysosomal TTCF digestion pattern or indeed generate any of these fragments using purified cathepsins L, S, B, D or E , all of which have been implicated in the class II MHC antigen processing pathway (reviewed in refs 5 & 6).
TTCF processing activity. Lysosomal fractions from the human B cell line EDR were prepared on 27 % Percoll density gradients as previously described^8 using ^125I-labelled transferrin (internalised for 30 minutes at 37°C) and β-hexosaminidase to identify endosomal/plasma membrane and lysosomal fractions respectively. The peak of lysosomes was collected by centrifugation at 40,000 g for 1 hour, removed from the underlying Percoll pellet, collected again at 50,000 g for 1 hour and stored frozen. […]

Data set [2] relates to Asparagine endopeptidase (AEP). The data set can be described thus: AEP.
Another data set relates to AEP. The data set can be described thus: Purified AEP. As to conditions: up to 30 minutes.
Data set [3] can be described thus: Mono-S fractions of the partially purified TTCF processing activity from a crude B cell lysosome fraction. As to conditions: human, 37°C, up to 4 hours.
Data set [4] is described as follows: B cell lysosomal fractions (crude lysosomal protease mixture). Conditions: human, up to 30 minutes.
Data set [5] in a line: crude lysosomal protease mixture (B cell lysosomal fractions). Conditions: human, up to 30 minutes.

Regarding `NC(=O)CI` [iodoacetamide], in data set [1] (iodoacetamide 1 mM), the “sensitivity of lysosomal TTCF digestion activity to inhibitor” value is on record as “sensitive”.
Turning to `CC(=O)N[C@@H](CC(C)C)C(=O)N[C@@H](CC(C)C)C(=O)N[C@H](C=O)CCCNC(=N)N` [leupeptin, acetyl-leucyl-leucyl-arginal], the “inhibition of lysosomal digestion of TTCF” value in data set [1] is “could not inhibit; also recorded: completely resistant”.
Turning to `CC(C)CC(=O)N[C@H](C(=O)N[C@H](C(=O)N[C@@H](CC(C)C)[C@@H](O)CC(=O)N[C@@H](C)C(=O)N[C@@H](CC(C)C)[C@@H](O)CC(=O)O)C(C)C)C(C)C` [pepstatin] (Isovaleryl-VV[Sta]A[Sta]-OH), in data set [1], the “inhibition of lysosomal digestion of TTCF” value is “could not inhibit”.
QQQHLFGSN(CHO)VTDCSGNFCLFR: in data set [2], the cleaved bond result is reported as “N637-F638”; the not cleaved result is “fragments VTDCSGNFCLFR and QQQHLFGSN(CHO) not observed”.
Turning to QQQHLFGSNVTDCSGNFCLFRKKK, in data set [2], the cleaved bond result was “N630-V631; also recorded: N637-F638”.
Regarding Z-Ala-Ala-Asn-7-(4-methyl)coumarylamide, the cleaved bond result is on record as “Asn-NHMec, 10 minutes” in the data set on AEP and “Asn-7-(4-methyl)coumarylamide” in data set [3].
Take Z-Phe-Arg-NHMec: the cleaved bond entry in data set [4] and in data set [5] was “Arg-NHMec” each time.
In the case of Z-Val-Ala-Asn-NHMec, the cleaved bond entry in data set [4] is recorded as “Asn-NHMec”.
